Data: patent US8709710B2, “Methods of modulating interleukin-22 and immune response by notch regulators” (Deutsches Rheuma-Forschungszentrum Berlin, priority 2009, dated 2014)

Tested on: human T helper cells
Assay: IL-22 expression in human T helper cells activated with anti-CD3/anti-CD28 microparticles and recombinant Delta-like 4
Format: cell-based
Details: increasing concentrations of Delta-like 4 on microparticles; no antigen-presenting cells; restimulated after 5 days; FIG. 6
Procedure: Naive, i.e. antigen-inexperienced, human T helper cells are activated in the absence of antigen-presenting cells with microparticles loaded with stimulating anti-CD3 and anti-CD28 antibodies and increasing concentrations of recombinantly produced Delta-like 4. After 5 days the cells are restimulated and the expression of IL-22 is analyzed.

Delta-like 4: recombinantly produced Notch ligand Delta-like 4, loaded on microparticles
expression of IL-22: concentration-dependent expression of IL-22
